Experimental data reported in patent US4740502A, “Semisynthetic erythromycin antibiotics” (Abbott Laboratories, priority 1986, dated 1988).
Converted amounts (≈) assume the structure as drawn.

Legend:
[1] = test system: stomach, duodenum and jejunum; test: Gastrointestinal motility (stimulating activity) in a dog model, strain gauges
Method: Contractions in the gut were recorded with surgically implanted strain gauges. The contractile scores were determined according to the method of Jacoby, et al., as described in "Gastrointestinal Actions of Metoclopramide," Gastroenterology, Vol. 52, No. 4 (1967), pp. 676-684 by giving a numerical score to the height of each recorded contraction in the one hour period after administration of the test compound. […] Ratios were calculated for the stomach, duodenum and jejunum, and a final arithmetic mean index was calculated and reported in Table I.

Acinetobacter SP CMX 669 = test: Agar dilution MIC, Acinetobacter SP CMX 669; conditions: SPCMX669, 22 h
[2] = test system: Providencia stuartii CMX 640; test: Agar dilution MIC, Providencia stuartii CMX 640; conditions: CMX640, 22 h
[3] = test system: Ent. aerogenes ATCC 10348; test: Agar dilution MIC, Ent. aerogenes ATCC 10348; conditions: Klebsiella aerogenes, ATCC10348, 22 h
Strep. faecium ATCC 8043 = test: Agar dilution MIC, Strep. faecium ATCC 8043; conditions: Enterococcus faecium, ATCC8043, 22 h
[4] = test system: Pseudomonas aeruginosa K799/WT; test: Agar dilution MIC, Pseudomonas aeruginosa K799/WT; conditions: 22 h
Staph. epidermidis 3519 = test: Agar dilution MIC, Staph. epidermidis 3519; conditions: Staphylococcus epidermidis, 3519, 22 h
[5] = test system: Pseudomonas aeruginosa 5007; test: Agar dilution MIC, Pseudomonas aeruginosa 5007; conditions: Pseudomonas aeruginosa, 5007, 22 h
Strep. pyogenes 930 = test: Agar dilution MIC, Strep. pyogenes 930; conditions: Streptococcus pyogenes, 930, 22 h
E. coli H560 = test: Agar dilution MIC, E. coli H560; conditions: Escherichia coli, H560, 22 h
[6] = test system: Pseudomonas aeruginosa K799/61; test: Agar dilution MIC, Pseudomonas aeruginosa K799/61; conditions: K799/61, 22 h
E. coli JUHL = test: Agar dilution MIC, E. coli JUHL; conditions: Escherichia coli, 22 h
Staph. aureus A5177 = test: Agar dilution MIC, Staph. aureus A5177; conditions: Staphylococcus aureus, A5177, 22 h
Strep. pyogenes EES61 = test: Agar dilution MIC, Strep. pyogenes EES61; conditions: Streptococcus pyogenes, EES61, 22 h
E. coli KNK 437 = test: Agar dilution MIC, E. coli KNK 437; conditions: Escherichia coli, KNK437, 22 h
[7] = test system: Pseudomonas aeruginosa BMH10; test: Agar dilution MIC, Pseudomonas aeruginosa BMH10; conditions: BMH10, 22 h
[8] = test system: Staph. epidermidis 3519 RARI; test: Agar dilution MIC, Staph. epidermidis 3519 RARI; conditions: Staphylococcus epidermidis, 22 h
Staph. aureus ATCC 6538P = test: Agar dilution MIC, Staph. aureus ATCC 6538P; conditions: Staphylococcus aureus, ATCC6538P, 22 h
Micrococcus luteus 4698 = test: Agar dilution MIC, Micrococcus luteus 4698; conditions: Micrococcus luteus, 4698, 22 h
E. coli SS = test: Agar dilution MIC, E. coli SS; conditions: Escherichia coli, 22 h
E. coli DC-2 = test: Agar dilution MIC, E. coli DC-2; conditions: Escherichia coli, DC2, 22 h
[9] = test system: Klebsiella pneumoniae 8045; test: Agar dilution MIC, Klebsiella pneumoniae 8045; conditions: Klebsiella pneumoniae, 8045, 22 h
Strep. bovis A5169 = test: Agar dilution MIC, Strep. bovis A5169; conditions: Streptococcus equinus, A5169, 22 h
Pseudomonas cepacia 2961 = test: Agar dilution MIC, Pseudomonas cepacia 2961; conditions: Burkholderia cepacia, 2961, 22 h
Staph. aureus CMX 686B = test: Agar dilution MIC, Staph. aureus CMX 686B; conditions: Staphylococcus aureus, CMX686B, 22 h
[10] = test system: Strep. agalactiae CMX 508; test: Agar dilution MIC, Strep. agalactiae CMX 508; conditions: Streptococcus agalactiae, CMX508, 22 h
Micrococcus luteus 9341 = test: Agar dilution MIC, Micrococcus luteus 9341; conditions: Micrococcus luteus, 9341, 22 h
[11] = 4 mg/kg intravenously, one hour period, mean of stomach, duodenum and jejunum ratios to erythromycin A lactobionate

**Q.** How did the “Gastrointestinal Motility Index” value ([1]; in vivo, iv, 4 mg/kg) turn out when `CC[C@H]1OC(=O)[C@H](C)[C@@H](O[C@H]2C[C@@](C)(OC)[C@@H](O)[C@H](C)O2)[C@H](C)[C@@H](O[C@@H]2O[C@H](C)C[C@H](N(C)C)[C@H]2O)[C@](C)(OC)C[C@@H](C)C(=O)[C@H](C)[C@@H](O)[C@]1(C)O` [6-O--Me--Ery A, 6-O-methyl erythromycin A] was run?
**A.** The value was 0.37.

**Q.** And the “stimulation of the gastrointestinal tissues” value (shortened to “stimulation”) ([1]; in vivo, iv, 4 mg/kg)?
**A.** The value was “less of a gastrointestinal response”.

**Q.** Which “Gastrointestinal Motility Index” value ([1]; in vivo, iv, 4 mg/kg) does the source give for `CC[C@H]1OC(=O)[C@H](C)[C@@H](O[C@H]2C[C@@](C)(OC)[C@@H](O)[C@H](C)O2)[C@H](C)[C@@H](O[C@@H]2O[C@H](C)C[C@H](N(C)C)[C@H]2O)[C@](C)(O)C[C@@H](C)C(=O)[C@H](C)[C@@H](O)[C@H]1C` [Ery B, erythromycin B] here?
**A.** The value was 2.47.

**Q.** For `CC[C@H]1OC(=O)[C@H](C)[C@@H](O[C@H]2C[C@@](C)(OC)[C@@H](O)[C@H](C)O2)[C@H](C)[C@@H](O[C@@H]2O[C@H](C)C[C@H](N(C)C)[C@H]2O)[C@](C)(O)C[C@@H](C)C(=O)[C@H](C)[C@@H](O)[C@]1(C)O` [Erythromycin A], which MIC (Acinetobacter SP CMX 669) is on record?
**A.** Its MIC is 3.1 µg/mL (≈ 4.22 µM).

**Q.** And the MIC [2]?
**A.** Its MIC is over 100 µg/mL.

**Q.** And the MIC [3]?
**A.** The MIC was 50 µg/mL (≈ 68.1 µM).

**Q.** And the MIC (Strep. faecium ATCC 8043)?
**A.** The MIC was 0.05 µg/mL (≈ 0.0681 µM).

**Q.** And the MIC [4]?
**A.** The MIC was 50 µg/mL (≈ 68.1 µM).

**Q.** What about the MIC (Staph. epidermidis 3519) of the same molecule?
**A.** Its MIC is 0.1 µg/mL (≈ 0.136 µM).

**Q.** What about the MIC [5] of the same molecule?
**A.** The MIC was over 100 µg/mL.

**Q.** What about the MIC (Strep. pyogenes 930) of the same molecule?
**A.** Its MIC is over 100 µg/mL.

**Q.** And the MIC (E. coli H560)?
**A.** Its MIC is 6.2 µg/mL (≈ 8.45 µM).

**Q.** What about the MIC [6] of the same molecule?
**A.** The MIC was 1.56 µg/mL (≈ 2.13 µM).

**Q.** With `CC[C@H]1OC(=O)[C@H](C)[C@@H](O[C@H]2C[C@@](C)(OC)[C@@H](OC(N)=O)[C@H](C)O2)[C@H](C)[C@@H](O[C@@H]2O[C@H](C)C[C@H](N(C)C)[C@H]2O)[C@](C)(OC)C[C@@H](C)C(=O)[C@H](C)[C@@H](O)[C@]1(C)O` [Example 1, 6-O-methyl-erythromycin A-4"-carbamate] as the molecule, how does the MIC (Acinetobacter SP CMX 669) read?
**A.** The MIC was 6.2 µg/mL (≈ 7.84 µM).

**Q.** And the MIC (E. coli JUHL)?
**A.** The MIC was 12.5 µg/mL (≈ 15.8 µM).

**Q.** What about the MIC (Staph. aureus A5177) of the same molecule?
**A.** Its MIC is 0.39 µg/mL (≈ 0.493 µM).

**Q.** And the MIC [2]?
**A.** Its MIC is 100 µg/mL (≈ 126 µM).

**Q.** And the MIC [3]?
**A.** The MIC was 25 µg/mL (≈ 31.6 µM).

**Q.** What about the MIC (Strep. pyogenes EES61) of the same molecule?
**A.** Its MIC is 0.01 µg/mL (≈ 0.0126 µM).

**Q.** What about the MIC (E. coli KNK 437) of the same molecule?
**A.** The MIC was 25 µg/mL (≈ 31.6 µM).

**Q.** What about the “Gastrointestinal Motility Index” value [1, 11] of the same molecule?
**A.** Its value is 0.03.

**Q.** What about the MIC [7] of the same molecule?
**A.** Its MIC is 50 µg/mL (≈ 63.2 µM).

**Q.** What about the MIC [8] of the same molecule?
**A.** The MIC was 0.1 µg/mL (≈ 0.126 µM).

**Q.** What about the MIC (Strep. faecium ATCC 8043) of the same molecule?
**A.** Its MIC is 0.05 µg/mL (≈ 0.0632 µM).

**Q.** What about the MIC (Staph. aureus ATCC 6538P) of the same molecule?
**A.** Its MIC is 0.02 µg/mL (≈ 0.0253 µM).

**Q.** What about the MIC (Micrococcus luteus 4698) of the same molecule?
**A.** Its MIC is 0.39 µg/mL (≈ 0.493 µM).

**Q.** And the MIC (E. coli SS)?
**A.** The MIC was 0.2 µg/mL (≈ 0.253 µM).

**Q.** And the MIC (E. coli DC-2)?
**A.** The MIC was 50 µg/mL (≈ 63.2 µM).

**Q.** And the MIC [4]?
**A.** The MIC was 50 µg/mL (≈ 63.2 µM).

**Q.** What about the MIC [9] of the same molecule?
**A.** The MIC was 50 µg/mL (≈ 63.2 µM).

**Q.** What about the MIC (Strep. bovis A5169) of the same molecule?
**A.** The MIC was 0.02 µg/mL (≈ 0.0253 µM).

**Q.** And the MIC (Staph. epidermidis 3519)?
**A.** The MIC was 0.05 µg/mL (≈ 0.0632 µM).

**Q.** And the MIC [5]?
**A.** The MIC was 50 µg/mL (≈ 63.2 µM).

**Q.** And the MIC (Strep. pyogenes 930)?
**A.** Its MIC is over 100 µg/mL.

**Q.** What about the MIC (Pseudomonas cepacia 2961) of the same molecule?
**A.** The MIC was 50 µg/mL (≈ 63.2 µM).

**Q.** And the MIC (Staph. aureus CMX 686B)?
**A.** Its MIC is 0.05 µg/mL (≈ 0.0632 µM).

**Q.** What about the MIC (E. coli H560) of the same molecule?
**A.** Its MIC is 6.2 µg/mL (≈ 7.84 µM).

**Q.** What about the MIC [10] of the same molecule?
**A.** The MIC was 0.02 µg/mL (≈ 0.0253 µM).

**Q.** And the MIC (Micrococcus luteus 9341)?
**A.** The MIC was 0.02 µg/mL (≈ 0.0253 µM).

**Q.** What about the MIC [6] of the same molecule?
**A.** The MIC was 1.56 µg/mL (≈ 1.97 µM).

**Q.** How did the “Gastrointestinal Motility Index” value [1, 11] turn out when `CC[C@H]1OC(=O)[C@H](C)[C@@H](O[C@H]2C[C@@](C)(OC)[C@@H](OC(N)=O)[C@H](C)O2)[C@H](C)[C@@H](O[C@@H]2O[C@H](C)C[C@H](N(C)C)[C@H]2O)[C@](C)(O)C[C@@H](C)C(=O)[C@H](C)[C@@H](O)[C@H]1C` [Example 2, Erythromycin B-4"-carbamate] was run?
**A.** The value was 0.17.

**Q.** How did the “Gastrointestinal Motility Index” value [1, 11] turn out when `CC[C@H]1OC(=O)[C@H](C)[C@@H](O[C@H]2C[C@@](C)(OC)[C@@H](OC(N)=O)[C@H](C)O2)[C@H](C)[C@@H](O[C@@H]2O[C@H](C)C[C@H](N(C)C)[C@H]2O)[C@](C)(O)C[C@@H](C)C(=O)[C@H](C)[C@@H](O)[C@]1(C)O` [Example 4, Erythromycin A-4"-carbamate] was run?
**A.** The value was 0.11.

**Q.** With `CC[C@H]1OC(=O)[C@H](C)[C@@H](O[C@H]2C[C@@](C)(OC)[C@@H](O)[C@H](C)O2)[C@H](C)[C@@H](O[C@@H]2O[C@H](C)C[C@H](N(C)C)[C@H]2O)[C@](C)(O)C[C@@H](C)C(=O)[C@H](C)[C@@H](O)[C@]1(C)O` [erythromycin A lactobionate] as the molecule, how does the “stimulation” value ([1]; in vivo, iv, 4 mg/kg) read?
**A.** Its value is “pronounced stimulation of the stomach, duodenum, jejunum and ileum”.

**Q.** For `CC[C@H]1OC(=O)[C@H](C)[C@@H](O[C@H]2C[C@@](C)(OC)[C@@H](O)[C@H](C)O2)[C@H](C)[C@@H](O[C@@H]2O[C@H](C)C[C@H](N(C)C)[C@H]2O)[C@](C)(O)C[C@@H](C)C(=O)[C@H](C)[C@@H](O)[C@H]1C` [erythromycin B lactobionate], which “stimulation” value ([1]; in vivo, iv, 4 mg/kg) is on record?
**A.** The value was “pronounced stimulation of the stomach, duodenum, jejunum and ileum”.
